Assay results reported in patent publication US12122761B2, “2-azaspiro[3.4]octane derivatives as M4 agonists” (NOVARTIS AG, priority 2019, dated 2024).
pEC50: −log10 of the molar value.

Molecular target: T1, human cloned CHRM4 receptor (M4_CHO cells) (Homo sapiens, UniProt P08173)
T1 construct: expressed in transfected cells; host or cells: CHO-K1
T1 sequence (P08173 1-479): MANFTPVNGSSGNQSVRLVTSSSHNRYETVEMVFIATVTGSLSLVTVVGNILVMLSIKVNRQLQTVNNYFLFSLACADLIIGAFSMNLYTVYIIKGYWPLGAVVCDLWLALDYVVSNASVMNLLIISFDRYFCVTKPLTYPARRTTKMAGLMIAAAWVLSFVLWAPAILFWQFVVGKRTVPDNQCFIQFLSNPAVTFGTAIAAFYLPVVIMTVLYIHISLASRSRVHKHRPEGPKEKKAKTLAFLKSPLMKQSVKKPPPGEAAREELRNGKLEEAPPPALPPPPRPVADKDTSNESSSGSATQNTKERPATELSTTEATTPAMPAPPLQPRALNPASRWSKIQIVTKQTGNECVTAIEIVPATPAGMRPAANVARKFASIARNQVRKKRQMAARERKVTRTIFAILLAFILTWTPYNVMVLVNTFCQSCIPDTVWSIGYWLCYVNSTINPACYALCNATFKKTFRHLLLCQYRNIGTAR
Test: CHRM4 Ca++ Flux Assay (agonist mode, FDSS 7000EX)
Assay type: cell-based
Details: for Emax: Percent Activity, read-out: M4 FDSS PA; for pEC50: geometric mean if tested more than once, read-out: M4 FDSS EC50
Summary of the method: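 Agonist-mode response was expressed as percent of the Carbachol EC100 and fitted with four-parameter nonlinear regression over an 11-point triplicate dose series. Intracellular Ca++ was tracked for 3 min by fluorescent dye in CHO-K1 cells stably expressing human CHRM4. Cells were preincubated 60 min with 20 μM ATP in buffer containing 2.5 mM probenecid.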

| SMILES | Emax [%] | pEC50 |
| --- | --- | --- |
| Fc1ccc(C2CCOC2)c(C2CCN([C@@H]3CCC4(C3)CN(c3nnco3)C4)CC2)c1 (mixture of isomers) [Example 2J, 2-((6R)-6-(4-(5-fluoro-2-(tetrahydrofuran-3-yl)phenyl)piperidin-1-yl)-2-azaspiro[3.4]octan-2-yl)-1,3,4-oxadiazole] | 92 | 8.70 |
| O=C(C1COC1)N1CC2(CC[C@H](N3CCC(c4ccccc4OC(F)(F)F)CC3)C2)C1 (single isomer, unassigned) [Example 8G] | 24 | 6.56 |
| O=C(N1CC2(CC[C@H](N3CCC(c4ccccc4C4CCOCC4)CC3)C2)C1)C1(F)CC1 (single isomer, unassigned) [Example 9M] | 35 | 7.00 |
| c1ccc(C2CCN([C@H]3CCC4(C3)CN(c3nnco3)C4)CC2)c(C2CCOCC2)c1 (single isomer, unassigned) [Example 10T] | 67 | 6.77 |
| c1ccc(C2CCN([C@@H]3CCC4(C3)CN(c3nnco3)C4)CC2)c(OC2CC3(COC3)C2)c1 [Example 1A, (R)-2-(6-(4-(2-((2-oxaspiro[3.3]heptan-6-yl)oxy)phenyl)piperidin-1-yl)-2-azaspiro[3.4]octan-2-yl)-1,3,4-oxadiazole] | 81 | 9.00 |
| c1ccc(C2CCN([C@@H]3CCC4(C3)CN(c3nnco3)C4)CC2)c(OC2COC2)c1 [Example 1D, (R)-2-(6-(4-(2-(oxetan-3-yloxy)phenyl)piperidin-1-yl)-2-azaspiro[3.4]octan-2-yl)-1,3,4-oxadiazole] | 79 | 9.00 |
| c1ccc(C2CCN([C@@H]3CCC4(C3)CN(c3nnco3)C4)CC2)c(OC[C@@H]2COCCO2)c1 [Example 1E, 2-((R)-6-(4-(2-(((S)-1,4-dioxan-2-yl)methoxy)phenyl)piperidin-1-yl)-2-azaspiro[3.4]octan-2-yl)-1,3,4-oxadiazole] | 72 | 9.00 |
| CC(C)(O)CCOc1ccccc1C1CCN([C@@H]2CCC3(C2)CN(c2nnco2)C3)CC1 [Example 1F] | 48 | 8.40 |
| c1ccc(C2CCN([C@@H]3CCC4(C3)CN(c3nncs3)C4)CC2)c(OCC2COC2)c1 [Example 1G, (R)-2-(6-(4-(2-(oxetan-3-ylmethoxy)phenyl)piperidin-1-yl)-2-azaspiro[3.4]octan-2-yl)-1,3,4-thiadiazole] | 82 | 9.00 |
| c1ccc(C2CCN([C@@H]3CCC4(C3)CN(c3nncs3)C4)CC2)c(OCC2CCOCC2)c1 [Example 1I, (R)-2-(6-(4-(2-((tetrahydro-2H-pyran-4-yl)methoxy)phenyl)piperidin-1-yl)-2-azaspiro[3.4]octan-2-yl)-1,3,4-thiadiazole] | 61 | 8.40 |
| FC1(COc2ccccc2C2CCN([C@@H]3CCC4(C3)CN(c3nncs3)C4)CC2)CCOCC1 [Example 1J, (R)-2-(6-(4-(2-((4-fluorotetrahydro-2H-pyran-4-yl)methoxy)phenyl)piperidin-1-yl)-2-azaspiro[3.4]octan-2-yl)-1,3,4-thiadiazole] | 50 | 8.22 |
| c1ccc(C2CCN([C@@H]3CCC4(C3)CN(c3cncnc3)C4)CC2)c(OC2COC2)c1 [Example 1K, (R)-6-(4-(2-(oxetan-3-yloxy)phenyl)piperidin-1-yl)-2-(pyrimidin-5-yl)-2-azaspiro[3.4]octane] | 74 | 9.00 |
| c1ccc(C2CCN([C@@H]3CCC4(C3)CN(c3cncnc3)C4)CC2)c(OCC2COC2)c1 [Example 1N, (R)-6-(4-(2-(oxetan-3-ylmethoxy)phenyl)piperidin-1-yl)-2-(pyrimidin-5-yl)-2-azaspiro[3.4]octane] | 62 | > 9.40 |
| FC1(COc2ccccc2C2CCN([C@@H]3CCC4(C3)CN(c3nnco3)C4)CC2)CCOCC1 [Example 2D, (R)-2-(6-(4-(2-((4-fluorotetrahydro-2H-pyran-4-yl)methoxy)phenyl)piperidin-1-yl)-2-azaspiro[3.4]octan-2-yl)-1,3,4-oxadiazole] | 72 | 9.00 |
| CC1(COc2ccccc2C2CCN([C@@H]3CCC4(C3)CN(c3nnco3)C4)CC2)CCOCC1 [Example 2E, (R)-2-(6-(4-(2-((4-methyltetrahydro-2H-pyran-4-yl)methoxy)phenyl)piperidin-1-yl)-2-azaspiro[3.4]octan-2-yl)-1,3,4-oxadiazole] | 86 | 8.70 |
| c1ccc(C2CCN([C@@H]3CCC4(C3)CN(c3nnco3)C4)CC2)c(OC2CCOCC2)c1 [Example 2F, (R)-2-(6-(4-(2-((tetrahydro-2H-pyran-4-yl)oxy)phenyl)piperidin-1-yl)-2-azaspiro[3.4]octan-2-yl)-1,3,4-oxadiazole] | 88 | 8.15 |
| c1ccc(C2CCOC2)c(C2CCN([C@@H]3CCC4(C3)CN(c3nnco3)C4)CC2)c1 (stereo partly drawn) [Example 2K, 2-((6R)-6-(4-(2-(tetrahydrofuran-3-yl)phenyl)piperidin-1-yl)-2-azaspiro[3.4]octan-2-yl)-1,3,4-oxadiazole] | 93 | 8.52 |
| c1ccc(C2CCN([C@@H]3CCC4(C3)CN(c3nnco3)C4)CC2)c(-c2ncco2)c1 [Example 2M, (R)-2-(6-(4-(2-(oxazol-2-yl)phenyl)piperidin-1-yl)-2-azaspiro[3.4]octan-2-yl)-1,3,4-oxadiazole] | 82 | 8.22 |

Further lines, results first:

| Emax [%] | pEC50 | SMILES |
| --- | --- | --- |
| 71 | 9.00 | FC1(COc2ccccc2C2CCN([C@@H]3CCC4(C3)CN(c3nncs3)C4)CC2)COC1 [Example 1H, (R)-2-(6-(4-(2-((3-fluorooxetan-3-yl)methoxy)phenyl)piperidin-1-yl)-2-azaspiro[3.4]octan-2-yl)-1,3,4-thiadiazole] |
| 67 | 8.70 | c1ccc(C2CCN([C@@H]3CCC4(C3)CN(c3cncnc3)C4)CC2)c(OC2CCOCC2)c1 [Example 1L, (R)-2-(pyrimidin-5-yl)-6-(4-(2-((tetrahydro-2H-pyran-4-yl)oxy)phenyl)piperidin-1-yl)-2-azaspiro[3.4]octane] |
| 53 | 8.52 | c1ccc(C2CCN([C@@H]3CCC4(C3)CN(c3cncnc3)C4)CC2)c(OCC2CCOCC2)c1 [Example 1M, (R)-2-(pyrimidin-5-yl)-6-(4-(2-((tetrahydro-2H-pyran-4-yl)methoxy)phenyl)piperidin-1-yl)-2-azaspiro[3.4]octane] |
| 59 | 8.52 | c1ccc(C2CCN([C@@H]3CCC4(C3)CN(c3cncnc3)C4)CC2)c(OC2CC3(COC3)C2)c1 [Example 1O, (R)-6-(4-(2-((2-oxaspiro[3.3]heptan-6-yl)oxy)phenyl)piperidin-1-yl)-2-(pyrimidin-5-yl)-2-azaspiro[3.4]octane] |
| 61 | 9.00 | c1ccc(C2CCN([C@@H]3CCC4(C3)CN(c3cncnc3)C4)CC2)c(O[C@@H]2CCOC2)c1 [Example 1P, (R)-2-(pyrimidin-5-yl)-6-(4-(2-(((R)-tetrahydrofuran-3-yl)oxy)phenyl)piperidin-1-yl)-2-azaspiro[3.4]octane] |
| 69 | 8.00 | CC(C)(O)COc1ccccc1C1CCN([C@@H]2CCC3(C2)CN(c2nnco2)C3)CC1 [Example 2A, (R)-1-(2-(1-(2-(1,3,4-oxadiazol-2-yl)-2-azaspiro[3.4]octan-6-yl)piperidin-4-yl)phenoxy)-2-methylpropan-2-ol] |
| 95 | > 9.40 | c1ccc(C2CCN([C@@H]3CCC4(C3)CN(c3nnco3)C4)CC2)c(O[C@@H]2CCOC2)c1 [Example 2B, 2-((R)-6-(4-(2-(((R)-tetrahydrofuran-3-yl)oxy)phenyl)piperidin-1-yl)-2-azaspiro[3.4]octan-2-yl)-1,3,4-oxadiazole] |
| 72 | 9.00 | COCCOc1ccccc1C1CCN([C@@H]2CCC3(C2)CN(c2nnco2)C3)CC1 [Example 2C] |
| 70 | 8.15 | c1ccc(C2CCN([C@@H]3CCC4(C3)CN(c3nnco3)C4)CC2)c(OCC2CCOCC2)c1 [Example 2G, (R)-2-(6-(4-(2-((tetrahydro-2H-pyran-4-yl)methoxy)phenyl)piperidin-1-yl)-2-azaspiro[3.4]octan-2-yl)-1,3,4-oxadiazole] |
| 83 | 8.52 | c1ccc(C2CCN([C@@H]3CCC4(C3)CN(c3nnco3)C4)CC2)c(C2CCOCC2)c1 [Example 2H, (R)-2-(6-(4-(2-(tetrahydro-2H-pyran-4-yl)phenyl)piperidin-1-yl)-2-azaspiro[3.4]octan-2-yl)-1,3,4-oxadiazole] |
| 96 | 9.00 | Fc1ccc(C2CCOCC2)c(C2CCN([C@@H]3CCC4(C3)CN(c3nnco3)C4)CC2)c1 [Example 2I, (R)-2-(6-(4-(5-fluoro-2-(tetrahydro-2H-pyran-4-yl)phenyl)piperidin-1-yl)-2-azaspiro[3.4]octan-2-yl)-1,3,4-oxadiazole] |
| 77 | 7.96 | c1ccc(C2CCN([C@@H]3CCC4(C3)CN(c3nnco3)C4)CC2)c(CC2CCOCC2)c1 [Example 2L, (R)-2-(6-(4-(2-((tetrahydro-2H-pyran-4-yl)methyl)phenyl)piperidin-1-yl)-2-azaspiro[3.4]octan-2-yl)-1,3,4-oxadiazole] |
